pIC50: −log10 of the molar value. ≈ marks a conversion by molar mass, not a printed value. Where a name gives a salt, the structure may show the parent alone. Numbered stars: 1 amine (or outer) side, 2 acyl side, 3 side chain; on linkers, the order of the positions; unused ones are H or OH. Bridge positions count the residues as written; N and C are the ends. Square brackets hold non-standard residues; d marks the D form. Peptide text beside a SMILES is read from it. * marks the point of attachment. ξ: configuration not given here. X1 = N=C1NCCC([C@H](N[*:1])C(=O)[*:2])N1; ΔAla(Z-3-ureido) = NC(=O)N/C=C(\N)C(=O)O; ξβ3hOrn = NCCCC(N)CC(=O)*; Dap = NC[C@H](N)C(=O)O A value given as a limit tells only on which side of the number the result lay.

One may read the MIC as the smallest concentration in the dilution series that meets the test's criterion for growth inhibition. As a reminder, the pIC50 is −log10 of the IC50, conventionally taken in molar units.

Common to all, as to format: functional, organism-based
The test system of test [1] is Mycolicibacterium smegmatis. Briefly: Antimycobacterial activity against Mycobacterium smegmatis by GFP-based fluorescence assay.
The subject of test [2] is Mycolicibacterium smegmatis. Nature of the test: Antimycobacterial activity against Mycobacterium smegmatis assessed as growth inhibition in mid-logarithmic phase by spectrophotometry.
The test system of test [3] is Mycolicibacterium smegmatis. Briefly: Antimycobacterial activity against Mycobacterium smegmatis grown in Luria-Bertani broth medium assessed as growth inhibition in mid-logarithmic phase by spectrophotometry. As to conditions: Mycolicibacterium smegmatis.
The subject of test [4] is Mycolicibacterium smegmatis. Nature of the test: Antimycobacterial activity against Mycobacterium smegmatis grown in nitrogen -limited broth medium assessed as growth inhibition in mid-logarithmic phase by spectrophotometry. As to conditions: Mycolicibacterium smegmatis.
The test system of test [5] is Mycolicibacterium smegmatis. Nature of the test: Antimycobacterial activity against Mycobacterium smegmatis grown in carbon-limited broth medium assessed as growth inhibition in mid-logarithmic phase by GFP-based fluorescence assay. The conditions noted are these: Mycolicibacterium smegmatis.
The test system of test [6] is Mycolicibacterium smegmatis. Nature of the test: Antimycobacterial activity against Mycobacterium smegmatis grown in carbon-limited broth medium assessed as growth inhibition in mid-logarithmic phase by spectrophotometry. As to conditions: Mycolicibacterium smegmatis.
The subject of test [7] is Mycolicibacterium smegmatis. Briefly: Antimycobacterial activity against Mycobacterium smegmatis grown in Luria-Bertani broth medium assessed as growth inhibition in mid-logarithmic phase by GFP-based fluorescence assay. As to conditions: Mycolicibacterium smegmatis.
In test [8] the test system is Mycolicibacterium smegmatis. Briefly: Antimycobacterial activity against Mycobacterium smegmatis grown in nitrogen -limited broth medium assessed as growth inhibition in mid-logarithmic phase by GFP-based fluorescence assay. As to conditions: Mycolicibacterium smegmatis.

As to `C[C@@H]1NC(=O)[C@@H](N)CNC(=O)[C@H](C2CCNC(=N)N2)NC(=O)/C(=C/NC(N)=O)NC(=O)[C@H](CNC(=O)CC(N)CCCN)NC1=O.N=C1NCCC([C@@H]2NC(=O)/C(=C/NC(N)=O)NC(=O)[C@H](CNC(=O)CC(N)CCCN)NC(=O)[C@H](CO)NC(=O)[C@@H](N)CNC2=O)N1` (stereo partly drawn) [CAPREOMYCIN] (H-[Dap]S[Dap](ξβ3hOrn)[ΔAla(Z-3-ureido)][X1]; lactam 1-C), the MIC in test [1] and in test [2] was 12.5 µM throughout. For the same molecule, the figures for the pIC50 in test [1] (read-out: IC50) and in test [2] were 5.75 and 5.67, respectively.
Take `O=C(O)c1cn(C2CC2)c2cc(N3CCNCC3)c(F)cc2c1=O` [CIPROFLOXACIN]: the pIC50 in test [1] was 5.97; in test [2] it was 5.70. The MIC in test [1] and in test [2] was 12.5 µM (≈ 4.14 µg/mL) throughout.
Consider `CC[C@@H](CO)NCCN[C@@H](CC)CO` [ETHAMBUTOL], for which the MIC in test [1] and in test [2] was 12.5 µM (≈ 2.55 µg/mL) in each case. Also, the pIC50 in test [1] (read-out: IC50) is 5.49; in test [2], 5.44.
`CCc1cc(C(N)=S)ccn1` [ETHIONAMIDE]: the MIC in test [1] and in test [2] was 100 µM (≈ 16.6 µg/mL) each time. Moreover, the pIC50 in test [1] (read-out: IC50) was 5.17; in test [2], 5.12.
`CC(=O)[C@]1(O)Cc2c(O)c3c(c(O)c2[C@@H](O[C@H]2C[C@H](N)[C@H](O)[C@H](C)O2)C1)C(=O)c1ccccc1C3=O` [IDARUBICIN]: the pIC50 in test [3] was 5.44; in test [4], 5.29; in test [5] it was 5.18; in test [6], 5.18; in test [7], 5.44; in test [8] it was 5.29. Further, the MIC in test [3] came out at 12.5 µM (≈ 6.22 µg/mL); in test [4] it was 12.5 µM (≈ 6.22 µg/mL); in test [5] it was 25 µM (≈ 12.4 µg/mL); in test [6], 25 µM (≈ 12.4 µg/mL); in test [7], 12.5 µM (≈ 6.22 µg/mL); in test [8], 12.5 µM (≈ 6.22 µg/mL).
Turning to `CCn1cc(C(=O)O)c(=O)c2cc(F)c(N3CCNC(C)C3)c(F)c21` (configuration not stated) [LOMEFLOXACIN], the pIC50 was 5.36 in test [3]; 5.84 in test [4]; 5.31 in test [5]; 5.31 in test [6]; 5.36 in test [7]; 5.84 in test [8]. Besides, the MIC in test [3] came to 12.5 µM (≈ 4.39 µg/mL); in test [4], 6.25 µM (≈ 2.2 µg/mL); in test [5] it was 6.25 µM (≈ 2.2 µg/mL); in test [6], 6.25 µM (≈ 2.2 µg/mL); in test [7] it was 12.5 µM (≈ 4.39 µg/mL); in test [8], 6.25 µM (≈ 2.2 µg/mL).
For `COc1ccccc1CNCCCCCCNCCCCCCCCNCCCCCCNCc1ccccc1OC` [METHOCTRAMINE HYDROCHLORIDE], the pIC50 in test [3] was 4.80; in test [4], 5.13; in test [5], 5.16; in test [6] it was 5.16; in test [7], 4.80; in test [8] it was 5.13. Besides, the MIC in test [3], in test [4], in test [5], in test [6], in test [7] and in test [8] was 12.5 µM in each case.
With `C[Se]C[C@H](N)C(=O)O` [METHYLSELENOCYSTEINE], the pIC50 in test [3] was below 4.30; in test [4] it was 6.22; in test [5], 5.66; in test [6], 5.66; in test [7] it was below 4.30; in test [8] it was 6.22. The MIC in test [3] was above 50 µM; in test [4] it was 12.5 µM (≈ 2.28 µg/mL); in test [5], 12.5 µM (≈ 2.28 µg/mL); in test [6], 12.5 µM (≈ 2.28 µg/mL); in test [7] it was above 50 µM; in test [8] it was 12.5 µM (≈ 2.28 µg/mL).
In the case of `CN(C)c1ccc(O)c2c1C[C@H]1C[C@H]3[C@H](N(C)C)C(O)=C(C(N)=O)C(=O)[C@@]3(O)C(O)=C1C2=O` [MINOCYCLINE], the pIC50 in test [3] was 5.17; in test [4] it was 5.14; in test [5], 5.30; in test [6], 5.30; in test [7], 5.17; in test [8], 5.14. Besides, the MIC in test [3], in test [4], in test [5], in test [6], in test [7] and in test [8] was 12.5 µM (≈ 5.72 µg/mL) each time.
In the case of `O=C1c2c(O)ccc(O)c2C(=O)c2c(NCCNCCO)ccc(NCCNCCO)c21` [MITOXANTRONE], the pIC50 is 4.66 in test [3]; 5.30 in test [4]; 5.01 in test [5]; 5.01 in test [6]; 4.66 in test [7]; 5.30 in test [8]. Moreover, the MIC in test [3], in test [4], in test [5], in test [6], in test [7] and in test [8] was 50 µM (≈ 22.2 µg/mL) in each case.
Consider `O=C(Nc1ccc([N+](=O)[O-])cc1Cl)c1cc(Cl)ccc1O` [NICLOSAMIDE], for which the pIC50 is 5.16 in test [3]; 5.33 in test [4]; 5.48 in test [5]; 5.48 in test [6]; 5.16 in test [7]; 5.33 in test [8]. Besides, the MIC is 12.5 µM (≈ 4.09 µg/mL) in test [3]; 6.25 µM (≈ 2.04 µg/mL) in test [4]; 6.25 µM (≈ 2.04 µg/mL) in test [5]; 6.25 µM (≈ 2.04 µg/mL) in test [6]; 12.5 µM (≈ 4.09 µg/mL) in test [7]; 6.25 µM (≈ 2.04 µg/mL) in test [8].
With `CC1COc2c(N3CCN(C)CC3)c(F)cc3c(=O)c(C(=O)O)cn1c23` (configuration not stated) [OFLOXACIN], the pIC50 in test [3] was 5.69; in test [4], 5.76; in test [5], 5.50; in test [6], 5.50; in test [7] it was 5.69; in test [8] it was 5.76. Moreover, the MIC in test [3] was determined as 3.12 µM (≈ 1.13 µg/mL); in test [4], 6.25 µM (≈ 2.26 µg/mL); in test [5], 6.25 µM (≈ 2.26 µg/mL); in test [6], 6.25 µM (≈ 2.26 µg/mL); in test [7], 3.12 µM (≈ 1.13 µg/mL); in test [8], 6.25 µM (≈ 2.26 µg/mL).
`N=C(N)c1ccc(OCCCCCOc2ccc(C(=N)N)cc2)cc1` [PENTAMIDINE]: the pIC50 is 4.63 in test [3]; 5.04 in test [4]; 4.96 in test [5]; 4.96 in test [6]; 4.63 in test [7]; 5.04 in test [8]. For the same molecule, the MIC amounted to 50 µM (≈ 17 µg/mL) in test [3]; 50 µM (≈ 17 µg/mL) in test [4]; 25 µM (≈ 8.51 µg/mL) in test [5]; 25 µM (≈ 8.51 µg/mL) in test [6]; 50 µM (≈ 17 µg/mL) in test [7]; 50 µM (≈ 17 µg/mL) in test [8].
As for `c1cnc2c(c1)ccc1cccnc12` [PHENANTHROLINE], the pIC50 in test [3] was 4.38; in test [4] it was 5.24; in test [5] it was 5.30; in test [6], 5.30; in test [7] it was 4.38; in test [8], 5.24. For the same molecule, the MIC stood at 50 µM (≈ 9.01 µg/mL) in test [3]; 12.5 µM (≈ 2.25 µg/mL) in test [4]; 12.5 µM (≈ 2.25 µg/mL) in test [5]; 12.5 µM (≈ 2.25 µg/mL) in test [6]; 50 µM (≈ 9.01 µg/mL) in test [7]; 12.5 µM (≈ 2.25 µg/mL) in test [8].
On to `CO[C@H]1/C=C/O[C@@]2(C)Oc3c(C)c(O)c4c(O)c(c(/C=N/N5CCN(C)CC5)c(O)c4c3C2=O)NC(=O)/C(C)=C\C=C\[C@H](C)[C@H](O)[C@@H](C)[C@@H](O)[C@@H](C)[C@H](OC(C)=O)[C@@H]1C` [RIFAMPIN], for which the MIC in test [1] and in test [2] was 6.25 µM (≈ 5.14 µg/mL) in each case. The figures for the pIC50 in test [1] (read-out: IC50) and in test [2] were 5.51 and 5.36, respectively.
Regarding `CN[C@@H]1[C@H](O[C@H]2[C@H](O[C@H]3[C@H](O)[C@@H](O)[C@H](N=C(N)N)[C@@H](O)[C@@H]3N=C(N)N)O[C@@H](C)[C@]2(O)C=O)O[C@@H](CO)[C@H](O)[C@H]1O` [STREPTOMYCIN], the MIC in test [1] and in test [2] was 1.56 µM (≈ 0.907 µg/mL) in each case. Moreover, the values for the pIC50 in test [1] (read-out: IC50) and in test [2] were 6.32 and 6.30, respectively.
Turning to `CN(C)[C@@H]1C(O)=C(C(N)=O)C(=O)[C@@]2(O)C(O)=C3C(=O)c4c(O)cccc4[C@@](C)(O)[C@H]3C[C@@H]12` [TETRACYCLINE], the MIC in test [1] and in test [2] was 6.25 µM (≈ 2.78 µg/mL) throughout. Further, the values for the pIC50 in test [1] (read-out: IC50) and in test [2] were 6.48 and 6.39, respectively.
As to `CN1CCN(CCCN2c3ccccc3Sc3ccc(C(F)(F)F)cc32)CC1` [TRIFLUOPERAZINE], the pIC50 in test [3] is 4.91; in test [4], 5.50; in test [5] it was 4.91; in test [6] it was 4.91; in test [7] it was 4.91; in test [8], 5.50. For the same molecule, the MIC in test [3], in test [4], in test [5], in test [6], in test [7] and in test [8] was 50 µM (≈ 20.4 µg/mL) in each case.
For the molecule `CN[C@H](CC(C)C)C(=O)N[C@H]1C(=O)N[C@@H](CC(N)=O)C(=O)N[C@H]2C(=O)N[C@H]3C(=O)N[C@H](C(=O)N[C@H](C(=O)O)c4cc(O)cc(O)c4-c4cc3ccc4O)[C@H](O)c3ccc(c(Cl)c3)Oc3cc2cc(c3O[C@@H]2O[C@H](CO)[C@@H](O)[C@H](O)[C@H]2O[C@H]2C[C@](C)(N)[C@H](O)[C@H](C)O2)Oc2ccc(cc2Cl)[C@H]1O` [VANCOMYCIN], the pIC50 in test [3] was 5.50; in test [4], 4.95; in test [5] it was 4.78; in test [6], 4.78; in test [7], 5.50; in test [8] it was 4.95. Besides, the MIC in test [3] was 12.5 µM (≈ 18.1 µg/mL); in test [4], 25 µM (≈ 36.2 µg/mL); in test [5] it was 25 µM (≈ 36.2 µg/mL); in test [6], 25 µM (≈ 36.2 µg/mL); in test [7], 12.5 µM (≈ 18.1 µg/mL); in test [8] it was 25 µM (≈ 36.2 µg/mL).
